# System: differentiated SH-SY5Y cells
# Experiment: Neuroprotection against Aβ 1-42 oligomer induced cytotoxicity (WST-1)
# Type: cell-based, human
# Conditions: Aβ 1-42 oligomers 2.5 μM, 48 h
# Description: FIG. 8. Effect of nitrogen-containing 1,4-benzoquinone 40 and geldanamycin on Aβ 1-42 induced neurotoxicity in differentiated SH-SY5Y cells.
# The cytotoxic effect of Aβ 1-42 oligomers (2.5 μM) on differentiated SH-SY5Y cells was evaluated in presence and absence of the test compounds. Sequential treatment of the human SH-SY5Y neuroblastoma cell line with retinoic acid and brain-derived neurotrophic factor (BDNF) generates nearly pure populations of human neuron-like cells, thus providing a model for the study of neuronal differentiation and neuroprotection as previously described, with some modifications (Encinas et al. (2000) J. Neurochem. 75, 991-1003). […] The plates were incubated at 37° C. in an atmosphere having 95% humidity and 5% CO2 for 48 h and then cell viability was measured using a WST-1 Kit (Roche Diagnostics). […] Color intensity was measured with a 96-well plate at 450 nm using a SpectraMax M5 microplate reader (Molecular Devices, Sunnyvale, Calif.). Results are expressed as percentage of viable cells relative to untreated control after subtracting background. Data are expressed as means±S.E.M. (n=3).
# Synthetic human Aβ 1-42 was purchased from AnaSpec (San Jose, Calif.). […] Aβ 1-42 peptide content was determined by the method of bicinchoninic acid assay (micro-BCA kit, Pierce) using BSA as reference.
compound,measurement,value
COC1=C2CCCCCCCCCCCCCCCNC(=CC1=O)C2=O [Compound 40],Effect on Aβ 1-42 induced cytotoxicity (in words),decreased Aβ 1-42 induced cytotoxicity in a concentration dependent manner

# From US9957214B2, “Multifunctional radical quenchers” (ARIZONA BOARD OF REGENTS ON BEHALF OF ARIZONA STATE …, priority 2012, dated 2018)
